Source: patent US6355472B2, “Method for producing nucleoside-5′-phosphate ester” (Ajinomoto Co., Inc., priority 1996, dated 2002)

Key:
[1] = system: acid phosphatase derived from Escherichia blattae; format: biochemical, Escherichia blattae JCM 1650
[2] = target: T1, acid phosphatase derived from Morganella morganii (Morganella morganii, UniProt P28581); format: biochemical, Morganella morganii NCIMB 10466
T1 construct: made in house; host or cells: Morganella morganii NCIMB 10466 (native strain, not recombinant; purified from cell-free extract)
T1 sequence (P28581 21-249): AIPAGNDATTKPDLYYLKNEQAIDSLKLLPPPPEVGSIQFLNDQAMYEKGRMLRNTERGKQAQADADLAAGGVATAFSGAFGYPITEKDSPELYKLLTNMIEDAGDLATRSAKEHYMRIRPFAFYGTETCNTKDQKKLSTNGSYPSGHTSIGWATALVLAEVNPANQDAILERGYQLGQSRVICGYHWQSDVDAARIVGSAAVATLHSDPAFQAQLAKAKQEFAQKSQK

[3] = target: T2, acid phosphatase sample derived from Morganella morganii (Morganella morganii, UniProt P28581); experiment: Phosphorylation reaction of various nucleosides by acid phosphatase sample; format: biochemical; settings: sodium pyrophosphate 10 g/dl, nucleoside 2 g/dl, enzyme 50 units/dl, pH 4.0, 30° C., 3 hours
T2 construct: made in house; host or cells: Morganella morganii NCIMB 10466 (native strain, not recombinant; purified from cell-free extract)
T2 sequence (P28581 21-249): as above
Method: (§1) Sodium pyrophosphate (10 g/dl) and inosine, guanosine, uridine, or cytidine (2 g/dl) as a phosphate group acceptor were dissolved in sodium acetate buffer (pH 4.0), to which the enzyme sample prepared in Example 1 was added so that its concentration was 50 units/dl. The reaction mixture was incubated at 30° C. for 3 hours while maintaining pH at 4.0.

[4] = system: Escherichia coli JM109/pEPI330; experiment: Production of various nucleoside-5′-phosphate esters using microbial cells of the mutant strain; format: cell-based; settings: sodium pyrophosphate 12 g/dl, nucleoside 6 g/dl, cells 200 mg/dl dry weight, pH 4.0, 35° C., 32 hours
Method: Escherichia coli JM109/pEPI330 into which the plasmid containing the gene encoding the acid phosphatase with lowered phosphomonoesterase activity had been introduced was inoculated to an L medium (50 ml) containing 100 μg/ml of ampicillin and 1 mM of IPTG, and it was cultivated at 37° C. for 16 hours.
Sodium pyrophosphate (12 g/dl), and inosine, guanosine, uridine, or cytidine (6 g/dl) as a phosphate group acceptor were dissolved in 100 mM sodium acetate buffer (pH 4.0), to which the microbial cells described above were added to give a cell concentration of 200 mg/dl as converted into a dry weight of the cells. The reaction mixture was incubated at 35° C. for 32 hours while maintaining pH at 4.0. Produced nucleotide contained only nucleoside-5′-phosphate ester. By-production of nucleoside-2′-phosphate ester and nucleoside-3′-phosphate ester was not observed at all.

[5] = system: acid phosphatase sample derived from Escherichia blattae; experiment: Phosphorylation reaction of various nucleosides by acid phosphatase sample; format: biochemical; settings: sodium pyrophosphate 15 g/dl, nucleoside 3 g/dl, enzyme 50 units/dl, pH 4.0, 35° C., 3 hours
Method: as §1, with “(15” for “(10”, “(3” for “(2”, “g/dl)” for “g/dl) as a phosphate group acceptor”, “4” for “1”, “35°” for “30°”

E. coli JM109/pEPI380 [6] = experiment: Production of various nucleoside-5′-phosphate esters using new mutant acid phosphatase gene-containing strain; format: cell-based; settings: pyrophosphoric acid 15 g/dl, nucleoside 8 g/dl, cells 100 mg/dl dry weight, pH 4.0, 35° C., 12 hours
Method: E. coli JM109/pEPI380 having introduced therein the plasmid containing the new mutant acid phosphatase gene was inoculated into 50 ml of an L medium containing 100 μg/ml of ampicillin and 1 mM of IPTG, and incubated at 37° C. for 16 hours.
Pyrophosphoric acid (15 g/dl) and 8 g/dl of inosine, […], uridine or cytidine as a phosphate acceptor were dissolved in a 100 mM acetate buffer ([…]). To this was added the above-mentioned strain such that the concentration reached 100 mg/dl in terms of the dry cell weight. The reaction was conducted at 35° C. for 12 hours while maintaining the pH at 4.0. The phosphorylation proceeded well with any of the nucleosides to form and accumulate the corresponding nucleoside-5′-phosphate esters. The nucleotide formed was only the nucleoside-5′-phosphate ester, and the formation of a nucleoside-2′-phosphate ester and a nucleoside-3′-phosphate ester as by-products was not observed at all.

[7] = system: acid phosphatase sample derived from Escherichia blattae; experiment: Production of 5′-inosinic acid from various phosphate group donors by acid phosphatase sample; format: biochemical; settings: inosine 2 g/dl, phosphate group donor 10 g/dl, enzyme 50 units/dl, pH 4.0, 35° C., 3 hours
Method: (§2) Inosine (2 g/dl) and sodium tripolyphosphate, sodium polyphosphate (trade name: Polygon P, produced by Chiyoda Chemical), disodium phenylphosphate, or disodium carbamyl phosphate (10 g/dl) as a phosphate group donor were dissolved in sodium acetate buffer (pH 4.0), to which the enzyme sample prepared in Example 4 was added so that its concentration was 50 units/dl. The reaction mixture was incubated at 35° C. for 3 hours while maintaining pH at 4.0.

[8] = system: Escherichia coli JM109/pEPI330; experiment: Production of 5′-inosinic acid from various phosphate group donors using microbial cells of the mutant strain; format: cell-based; settings: inosine 6 g/dl, phosphate group donor 12 g/dl, cells 200 mg/dl dry weight, pH 4.0, 35° C., 32 hours
Method: Escherichia coli JM109/pEPI330 into which the plasmid containing the mutant acid phosphatase gene had been introduced was inoculated to an L medium (50 ml) containing 100 μg/ml of ampicillin and 1 mM of IPTG, and it was cultivated at 37° C. for 16 hours.
Inosine (6 g/dl) and sodium tripolyphosphate, sodium polyphosphate (trade name: Polygon P, produced by Chiyoda Chemical), disodium phenylphosphate, or disodium carbamyl phosphate (12 g/dl) as a phosphate group donor were dissolved in 100 mM sodium acetate buffer (pH 4.0), to which the microbial cells described above were added to give a cell concentration of 200 mg/dl as converted into a dry weight of the cells. The reaction mixture was incubated at 35° C. for 32 hours while maintaining pH at 4.0. 5′-Inosinic acid was efficiently produced and accumulated by using any of the phosphate group donors. However, the accumulated amount of 5′-inosinic acid was the highest when polyphosphoric acid was used as the phosphate group donor.

[9] = target: T2, acid phosphatase sample derived from Morganella morganii; experiment: Production of 5′-inosinic acid from various phosphate group donors by acid phosphatase sample; format: biochemical; settings: inosine 2 g/dl, phosphate group donor 10 g/dl, enzyme 50 units/dl, pH 4.0, 30° C., 3 hours
Method: as §2, with “Example 1” for “Example 4”, “at 30°” for “at 35°”

E. coli JM109/pEPI380 [10] = experiment: Production of 5′-inosinic acid from various phosphate donors using new mutant acid phosphatase gene-containing strain; format: cell-based; settings: inosine 6 g/dl, phosphate donor 15 g/dl, cells 100 mg/dl dry weight, pH 4.0, 35° C., 12 hours
Method: E. coli JM109/pEPI380 having introduced therein the plasmid containing the new mutant acid phosphatase gene was inoculated into 50 ml of an L medium containing 100 μg/ml of ampicillin and 1 mM of IPTG, and incubated at 37 C. for 16 hours.
Inosine (6 g/dl) and 15 g/dl of a tripolyphosphate, a polyphosphate (“Polygon P”, a trade name for a product of Chiyoda Kagaku K.K.), […] or disodium carbamylphosphate were dissolved in a 100-mM acetate buffer (pH 4.0). To this was added the above-mentioned strain such that the concentration reached 100 mg/dl in terms of the dry cell weight. The reaction was conducted at 35° C. for 12 hours while maintaining the pH at 4.0. 5′-Inosinic acid was formed and accumulated at good efficiency with any of the phosphate donors. Especially when a polyphosphate was used as a phosphate donor, 5′-inosinic acid was accumulated in the largest amount.

## [Ag+2] [Ag^2+]
[1]
  Effect of the addition of metal ion and inhibitor on activity: inhibited
[2]
  Effect of the addition of metal ion and inhibitor on activity: inhibited

## [Cu+2] [Cu^2+]
[1]
  Effect of the addition of metal ion and inhibitor on activity: inhibited
[2]
  Effect of the addition of metal ion and inhibitor on activity: inhibited

## Nc1ccn([C@@H]2O[C@H](CO)[C@@H](O)[C@H]2O)c(=O)n1 [Cytidine, cytidine]
[3]
  Amount Produced (nucleoside-5′-ester): 0.98 g/dL
[4]
  Amount Produced (nucleoside-5′-phosphate ester): 6.60 g/dL
[5]
  Amount Produced (nucleoside-5′-ester): 1.22 g/dL
E. coli JM109/pEPI380 [6]
  Amount of the Product (nucleoside-5′-phosphate ester): 10.65 g/dL

## NC(=O)OP(=O)([O-])[O-].[Na+].[Na+] [Disodium carbamyl phosphate, disodium carbamyl phosphate]
[7]
  Produced 5′-inosinic acid: 1.53 g/dL
[8]
  Produced 5′-inosinic acid: 7.73 g/dL
[9]
  Produced 5′-inosinic acid: 2.54 g/dL
E. coli JM109/pEPI380 [10]
  Amount of 5′-inosinic acid formed: 12.42 g/dL

## O=P([O-])([O-])Oc1ccccc1.[Na+].[Na+] [Disodium phenylphosphate, disodium phenylphosphate]
[7]
  Produced 5′-inosinic acid: 1.50 g/dL
[8]
  Produced 5′-inosinic acid: 7.60 g/dL
[9]
  Produced 5′-inosinic acid: 2.33 g/dL
E. coli JM109/pEPI380 [10]
  Amount of 5′-inosinic acid formed: 12.84 g/dL

## [Fe+2] [Fe^2+]
[1]
  Effect of the addition of metal ion and inhibitor on activity: inhibited

## Nc1nc2c(ncn2[C@@H]2O[C@H](CO)[C@@H](O)[C@H]2O)c(=O)[nH]1 [Guanosine, guanosine]
[3]
  Amount Produced (nucleoside-5′-ester): 1.90 g/dL
[4]
  Amount Produced (nucleoside-5′-phosphate ester): 4.77 g/dL
[5]
  Amount Produced (nucleoside-5′-ester): 1.05 g/dL
E. coli JM109/pEPI380 [6]
  Amount of the Product (nucleoside-5′-phosphate ester): 5.78 g/dL

## [Hg+2] [Hg^2+]
[1]
  Effect of the addition of metal ion and inhibitor on activity: inhibited
[2]
  Effect of the addition of metal ion and inhibitor on activity: inhibited

## OC[C@H]1O[C@@H](n2cnc3c(O)ncnc32)[C@H](O)[C@@H]1O [Inosine, inosine]
[3]
  Amount Produced (nucleoside-5′-ester): 2.60 g/dL
[4]
  Amount Produced (nucleoside-5′-phosphate ester): 7.45 g/dL
[5]
  Amount Produced (nucleoside-5′-ester): 1.56 g/dL
E. coli JM109/pEPI380 [6]
  Amount of the Product (nucleoside-5′-phosphate ester): 12.05 g/dL

## [Pb+2] [Pb^2+]
[1]
  Effect of the addition of metal ion and inhibitor on activity: inhibited
[2]
  Effect of the addition of metal ion and inhibitor on activity: inhibited

## O=P(O)(O)OP(=O)(O)OP(=O)(O)O [Sodium tripolyphosphate, sodium tripolyphosphate]
[7]
  Produced 5′-inosinic acid: 1.20 g/dL
[8]
  Produced 5′-inosinic acid: 5.96 g/dL
[9]
  Produced 5′-inosinic acid: 2.10 g/dL
E. coli JM109/pEPI380 [10]
  Amount of 5′-inosinic acid formed: 10.84 g/dL

## O=c1ccn([C@@H]2O[C@H](CO)[C@@H](O)[C@H]2O)c(=O)[nH]1 [Uridine, uridine]
[3]
  Amount Produced (nucleoside-5′-ester): 1.30 g/dL
[4]
  Amount Produced (nucleoside-5′-phosphate ester): 8.93 g/dL
[5]
  Amount Produced (nucleoside-5′-ester): 1.87 g/dL
E. coli JM109/pEPI380 [6]
  Amount of the Product (nucleoside-5′-phosphate ester): 13.28 g/dL

## O=C(O)CI [iodoacetic acid]
[1]
  Effect of the addition of metal ion and inhibitor on activity: inhibited
[2]
  Effect of the addition of metal ion and inhibitor on activity: inhibited

## CC(=O)OP(=O)([O-])[O-].[K+].[Li+] [potassium lithium acetylphosphate]
E. coli JM109/pEPI380 [10]
  Amount of 5′-inosinic acid formed: 10.65 g/dL

## sodium polyphosphate
[7]
  Produced 5′-inosinic acid: 1.79 g/dL
[8]
  Produced 5′-inosinic acid: 8.84 g/dL
[9]
  Produced 5′-inosinic acid: 2.72 g/dL
E. coli JM109/pEPI380 [10]
  Amount of 5′-inosinic acid formed: 13.35 g/dL
